As usually defined, the Km is the substrate concentration at which the rate is half of its maximum. For orientation: IC50 means the point on the concentration scale where inhibition reaches its midpoint. Broadly, the Ki is a dissociation constant, usually derived from enzyme kinetics or from competition with a known ligand.

The source of these data is US20120329842A1 (priority 2010, published 2012).

Read-outs that look alike come from different tables or passages of the source.

Data set [1] deals with T1, IMP-1 (Serratia marcescens, UniProt P52699). The note with it: ratio of Km values.
Data set [2] addresses T1, IMP-1. The note with it: data from ref. 2; cited from earlier work.
Another data set addresses VIM-1 (Pseudomonas aeruginosa, UniProt A0A0F7KYQ8).
For a further data set, the target named is GIM-1 (Pseudomonas aeruginosa, UniProt Q704V1). The note with it: data from ref. 2; cited from earlier work.
A further data set concerns SPM-1. To be noted: data from ref. 2; cited from earlier work.
For data set [3], the target named is subclass B2 metallo-β-lactamase CphA (Aeromonas hydrophila, UniProt P26918). To be noted: cited from earlier work.
For data set [4], the target named is T1, IMP-1. The note with it: cited from earlier work.
Data set [5] has as its target T1, IMP-1. In words: biochemical. Also on record: species or system Pseudomonas aeruginosa.
A further data set deals with Bla2 (Bacillus anthracis, UniProt Q93T40). Kind of data set: biochemical. Type of data set: biochemical.
The test system of data set [6] is O=C(Cc1cccs1)N[C@@H]1C(=O)N2C(C(=O)O)=C(/C=C/c3ccc([N+](=O)[O-])cc3[N+](=O)[O-])CS[C@H]12. Kind of data set: purified protein, by the assay type. To be noted: pH 7.5.
Data set [7] has as its target human matrix metalloproteinase 8 (MMP-8) (Homo sapiens, UniProt P22894). Kind of data set: Human MMP-8 inhibition, commercial assay kit (Enzo). The note with it: at concentrations up to 100 μM.
The next data set deals with other MBLs. The note with it: cited from earlier work.
[8] abbreviates: data from ref. 2; read-out: Km for VIM-1; cited from earlier work.
[9] abbreviates: read-out: Km for VIM-1; data from ref. 2; cited from earlier work.

T1 sequence (P52699 19-246 limits assumed): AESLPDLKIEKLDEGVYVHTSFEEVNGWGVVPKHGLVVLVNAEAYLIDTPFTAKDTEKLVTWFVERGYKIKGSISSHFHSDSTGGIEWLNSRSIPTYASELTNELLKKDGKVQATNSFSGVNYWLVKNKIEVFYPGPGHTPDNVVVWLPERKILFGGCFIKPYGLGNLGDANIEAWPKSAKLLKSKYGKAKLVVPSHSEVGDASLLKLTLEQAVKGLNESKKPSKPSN
Chain of GIM-1 (Q704V1 entry or part of it): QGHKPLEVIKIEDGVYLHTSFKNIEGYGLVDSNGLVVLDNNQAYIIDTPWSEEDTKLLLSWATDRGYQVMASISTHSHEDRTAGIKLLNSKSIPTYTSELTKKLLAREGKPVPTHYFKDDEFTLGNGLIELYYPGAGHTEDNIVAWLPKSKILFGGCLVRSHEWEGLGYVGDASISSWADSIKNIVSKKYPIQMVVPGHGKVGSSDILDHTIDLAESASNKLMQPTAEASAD
Chain of Bla2 (Q93T40 1-256): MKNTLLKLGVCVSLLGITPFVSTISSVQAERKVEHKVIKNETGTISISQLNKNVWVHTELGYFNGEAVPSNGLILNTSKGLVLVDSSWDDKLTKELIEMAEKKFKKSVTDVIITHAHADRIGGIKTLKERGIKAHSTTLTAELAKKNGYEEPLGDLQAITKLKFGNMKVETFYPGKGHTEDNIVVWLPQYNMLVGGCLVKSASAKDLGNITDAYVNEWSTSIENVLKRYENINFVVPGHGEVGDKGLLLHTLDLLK
Chain of human matrix metalloproteinase 8 (MMP-8) (P22894 101-467): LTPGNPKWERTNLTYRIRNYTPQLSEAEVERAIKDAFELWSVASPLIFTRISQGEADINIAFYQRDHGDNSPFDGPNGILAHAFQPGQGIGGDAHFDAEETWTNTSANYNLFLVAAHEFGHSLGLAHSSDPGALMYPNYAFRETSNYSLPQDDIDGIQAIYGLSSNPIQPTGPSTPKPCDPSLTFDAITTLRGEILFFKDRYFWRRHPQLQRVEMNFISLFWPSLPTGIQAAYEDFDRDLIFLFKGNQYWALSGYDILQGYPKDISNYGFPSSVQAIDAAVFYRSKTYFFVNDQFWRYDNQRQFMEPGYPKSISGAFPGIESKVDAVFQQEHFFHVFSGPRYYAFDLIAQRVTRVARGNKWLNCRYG
Chain of subclass B2 metallo-β-lactamase CphA (P26918 28-254): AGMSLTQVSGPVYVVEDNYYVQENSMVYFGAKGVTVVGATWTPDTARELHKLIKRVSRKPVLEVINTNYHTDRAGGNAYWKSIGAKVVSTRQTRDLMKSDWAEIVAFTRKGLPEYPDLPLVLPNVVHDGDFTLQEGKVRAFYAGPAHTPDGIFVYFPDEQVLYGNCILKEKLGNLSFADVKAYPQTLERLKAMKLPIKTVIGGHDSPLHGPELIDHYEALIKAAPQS

With penicillin G, on IMP-1 [1], the “fold less tight binding to IMP-1 than imipenem” value is recorded as approximately 13 ×. For the same compound, the “fold less tight binding to IMP-1 than nitrocefin” value at IMP-1 [1] was approximately 20 ×. The Michaelis-Menten constant (Km) at IMP-1 [2] is 520 µM; at VIM-1 (setting [8]), 841 µM; at GIM-1, 46 µM; in the data set on SPM-1, 38 µM.
Turning to `O=C(O)c1cccc(C(=O)O)n1` [pyridine-2,6-dicarboxylic acid], the “inhibition of CphA activity” value in data set [3] is reported as “potently inhibit”. Besides, at IMP-1 [4], the “inhibitory effect on IMP-1” value was “potently inhibit”.
For `Nc1cccc(C2=NC(C(=O)O)CS2)c1` (stereo not drawn) [Compound 362, 2-(3-aminophenyl)-4,5-dihydrothiazole-4-carboxylic acid], the IC50 is 100 µM at IMP-1 [5] (read-out: IMP-1 IC50) and 20 µM at Bla2 (read-out: Bla2 IC50). In addition, on Bla2 (read-out: Bla2 KI), the inhibition constant Ki was 15 µM.
For `O=C(Cc1cccs1)N[C@@H]1C(=O)N2C(C(=O)O)=C(/C=C/c3ccc([N+](=O)[O-])cc3[N+](=O)[O-])CS[C@H]12` [Nitrocefin, nitrocefin], the Km at IMP-1 [2] was 27 µM; at VIM-1 (setting [9]) it was 17 µM; on GIM-1, 5.8 µM; in the data set on SPM-1 it was 4 µM.
In turn, `C[C@H](CS)C(=O)N1CCC[C@H]1C(=O)O` [Captopril, captopril] displayed an IC50 at Bla2 of 25 µM.
In the case of IMP-1 (Serratia marcescens), the Michaelis-Menten constant (Km) in data set [6] amounted to 25 µM.
Take `C[C@@H](O)[C@H]1C(=O)N2C(C(=O)O)=C(SCCN=CN)C[C@H]12` [Imipenem, imipenem]: the Michaelis-Menten constant (Km) is 1.5 µM at VIM-1 (setting [9]) and 27 µM on GIM-1.
In the case of `CC1(C)S[C@@H]2[C@H](NC(=O)[C@H](N)c3ccccc3)C(=O)N2[C@H]1C(=O)O` [Ampicillin], the Km at IMP-1 [2] was 200 µM; on VIM-1 (setting [8]), 917 µM; on GIM-1, 20 µM; with SPM-1 it was 72 µM.
Take `O=C(O)[C@@H]1CSC(c2ccccc2)=N1` [Compound 1, (R)-4,5-dihydro-2-phenylthiazole-4-carboxylic acid]: the “inhibition of human MMP-8” value in data set [7] was “did not exhibit inhibition”.
Take `O=c1ccc(-c2ccccc2)cn1O` [Compound 4, 1-hydroxy-5-phenylpyridin-2-one]: on IMP-1 [5], the midpoint of inhibition, the IC50, lay at 12 µM and the inhibition constant (Ki) lay within 3 to 19 µM.
Regarding `C[C@@H](O)[C@H]1C(=O)N2C(C(=O)O)=C(S[C@@H]3CN[C@H](C(=O)N(C)C)C3)[C@H](C)[C@H]12` [Meropenem], the Km is 48 µM on VIM-1 (setting [8]), 2.7 µM at GIM-1 and 281 µM with SPM-1.
As to `O=C(O)c1ccccn1` [pyridine-2-carboxylic acid], the Ki in [3] (read-out: Ki against CphA) was 5.7 µM. Further, the “activity against other MBLs” value in the data set with other MBLs is listed as “little or no activity”. Further, the “inhibitory effect on IMP-1” value on IMP-1 [4] was “only a very weak inhibitory effect”.
For the compound `CC(C)(C)OC(=O)Nc1cccc(C2=NC(C(=O)O)CS2)c1` (stereo not drawn) [Compound 361, 2-[3-(tert-butoxycarbonylamino)phenyl]-4,5-dihydrothiazole-4-carboxylic acid], on Bla2 (read-out: Bla2 IC50), the IC50 was determined as 70 µM.
For the compound `COC(=O)[C@@H]1CSC(CNC(=O)OC(C)(C)C)=N1` [Compound 369, tert-butyl ((R)-4-(methoxycarbonyl)-4,5-dihydrothiazol-2-yl)methylcarbamate], the IC50 on Bla2 (read-out: Bla2 IC50) amounted to 110 µM.
As for `CC(=O)OCC1=C(C(=O)O)N2C(=O)[C@@H](NC(=O)Cc3cccs3)[C@H]2SC1` [Cephalothin], the Km on IMP-1 [2] was 21 µM; on VIM-1 (setting [9]), 53 µM; on GIM-1 it was 16 µM; in the data set on SPM-1, 4 µM.
`CC1(C)SC(c2ccc(Br)cc2)=N[C@H]1C(=O)O` [Compound 365, (S)-2-(4-bromophenyl)-4,5-dihydro-5,5-dimethylthiazole-4-carboxylic acid]: at IMP-1 [5] (read-out: IMP-1 IC50), the half-inhibitory concentration (IC50) was 150 µM.
On to `O=C(O)c1csc(Cc2ccccc2)n1` [Compound 2, 2-benzylthiazole-4-carboxylic acid], for which the “inhibition of human MMP-8” value in data set [7] is “did not exhibit inhibition”.
As to `O=C(O)C1CS[C@H](c2ccccc2O)N1` (stereo partly drawn) [Compound 160, (R)-2-(2-hydroxyphenyl)thiazolidine-4-carboxylic acid], the figures for the IC50 at IMP-1 [5] (read-out: IMP-1 IC50) and on Bla2 (read-out: Bla2 IC50) were 29.2 µM and 16 µM, respectively.
With `CC(=O)Nc1cccc(C2=N[C@@H](C(=O)O)C(C)(C)S2)c1` [Compound 368, (S)-2-(3-acetamidophenyl)-4,5-dihydro-5,5-dimethyolthiazole-4-carboxylic acid], the half-inhibitory concentration (IC50) at IMP-1 [5] (read-out: IMP-1 IC50) is 60 µM.
On IMP-1 [5], `O=C(NCc1ccccc1)c1cccc(O)n1` [Compound 3, N-benzyl-6-hydroxypyridine-2-carboxamide] showed an IC50 of 13.9 µM and an inhibition constant Ki of 3 to 19 µM.
